Experimental data: patent US8030498B2, “Benzoylpyrazole compounds and herbicides containing them” (Ishihara Sangyo Kaisha, Ltd., priority 2005, dated 2011)

Columns and labels:
wheat (Triticum spp.) = experiment: Test Example 1: foliar treatment, growth inhibition rate, wheat; format: in vivo; settings: visually observed 17th to 23rd day after application
Outline: (§1)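 Seeds were sown in upland field soil in pots. At the target leaf stage (corn 2.0–3.5; greenfoxtail 1.0–3.0; rice 1.0–2.5; wheat 1.7–3.4), the formulated compound, diluted at a water volume of 500 L/ha with 0.1 vol % spreader, was applied by small sprayer. Plants were rated by eye on days 17–23.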

crabgrass = experiment: Test Example 2: soil application on the day after sowing, growth inhibition rate, crabgrass; format: in vivo, Digitaria sanguinalis L.; settings: 250 g/ha active ingredient, observed on 19th to 24th day
Outline: (§2)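 Pre-emergence soil treatment: one day post-sowing in upland soil, compound formulations at set active-ingredient rates were applied in 500 L/ha water. Visual rating of growth inhibition (0% untreated-equivalent to 100% complete kill) followed on days 19–24 after application.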

redroot pigweed = experiment: Test Example 2: soil application on the day after sowing, growth inhibition rate, redroot pigweed; format: in vivo, Amaranthus retroflexus L.; settings: 250 g/ha active ingredient, observed on 19th to 24th day
Outline: as §2

greenfoxtail = experiment: Test Example 2: soil application on the day after sowing, growth inhibition rate, greenfoxtail; format: in vivo, Setaria viridis L.; settings: 250 g/ha active ingredient, observed on 19th to 24th day
Outline: as §2

[1] = test system: prickly sida (Sida spinosa L.); experiment: Test Example 1: foliar treatment, growth inhibition rate, prickly sida; format: in vivo; settings: visually observed 17th to 23rd day after application
Outline: (§3)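 Visual scoring of growth inhibition, 0% (untreated) to 100% (complete kill), on days 17–23 following post-emergence spray of formulated compound in water (500 L/ha, 0.1 vol % spreader); plants treated at set leaf stages, e.g. corn 2.0–3.5, wheat 1.7–3.4.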

[2] = test system: redroot pigweed (Amaranthus retroflexus L.); experiment: Test Example 1: foliar treatment, growth inhibition rate, redroot pigweed; format: in vivo; settings: visually observed 17th to 23rd day after application
Outline: as §3

[3] = test system: greenfoxtail (Setaria viridis L.); experiment: Test Example 1: foliar treatment, growth inhibition rate, greenfoxtail; format: in vivo; settings: visually observed 17th to 23rd day after application
Outline: as §1

barnyardgrass = experiment: Test Example 2: soil application on the day after sowing, growth inhibition rate, barnyardgrass; format: in vivo, Echinochloa crus-galli L.; settings: 250 g/ha active ingredient, observed on 19th to 24th day
Outline: as §2

[4] = test system: velvetleaf (Abutilon theophrasti MEDIC.); experiment: Test Example 1: foliar treatment, growth inhibition rate, velvetleaf; format: in vivo; settings: visually observed 17th to 23rd day after application
Outline: as §1

wheat = experiment: Test Example 2: soil application on the day after sowing, growth inhibition rate, wheat; format: in vivo, Triticum spp.; settings: 250 g/ha active ingredient, observed on 19th to 24th day
Outline: as §2

rice = experiment: Test Example 2: soil application on the day after sowing, growth inhibition rate, rice; format: in vivo, Oryza sativa L.; settings: 250 g/ha active ingredient, observed on 19th to 24th day
Outline: as §2

[5] = test system: crabgrass (Digitaria sanguinalis L.); experiment: Test Example 1: foliar treatment, growth inhibition rate, crabgrass; format: in vivo; settings: visually observed 17th to 23rd day after application
Outline: as §3

soybean = experiment: Test Example 2: soil application on the day after sowing, growth inhibition rate, soybean; format: in vivo, Glycine max Merr.; settings: 250 g/ha active ingredient, observed on 19th to 24th day
Outline: as §2

corn (Zea mays L.) = experiment: Test Example 1: foliar treatment, growth inhibition rate, corn; format: in vivo; settings: visually observed 17th to 23rd day after application
Outline: as §1

[6] = test system: soybean (Glycine max Merr.); experiment: Test Example 1: foliar treatment, growth inhibition rate, soybean; format: in vivo; settings: visually observed 17th to 23rd day after application
Outline: as §3

prickly sida = experiment: Test Example 2: soil application on the day after sowing, growth inhibition rate, prickly sida; format: in vivo, Sida spinosa L.; settings: 250 g/ha active ingredient, observed on 19th to 24th day
Outline: as §2

rice (Oryza sativa L.) = experiment: Test Example 1: foliar treatment, growth inhibition rate, rice; format: in vivo; settings: visually observed 17th to 23rd day after application
Outline: as §1

[7] = test system: barnyardgrass (Echinochloa crus-galli L.); experiment: Test Example 1: foliar treatment, growth inhibition rate, barnyardgrass; format: in vivo; settings: visually observed 17th to 23rd day after application
Outline: as §1

corn = experiment: Test Example 2: soil application on the day after sowing, growth inhibition rate, corn; format: in vivo, Zea mays L.; settings: 250 g/ha active ingredient, observed on 19th to 24th day
Outline: as §2

velvetleaf = experiment: Test Example 2: soil application on the day after sowing, growth inhibition rate, velvetleaf; format: in vivo, Abutilon theophrasti MEDIC.; settings: 250 g/ha active ingredient, observed on 19th to 24th day
Outline: as §2

Row | Compound | Growth inhibition rate (%) Wheat (wheat (Triticum spp.); 31 g/ha active ingredient) [%] | Growth inhibition rate (%) Crabgrass (crabgrass) [%] | Growth inhibition rate (%) redroot pigweed (redroot pigweed) [%] | Growth inhibition rate (%) Greenfoxtail (greenfoxtail) [%] | Growth inhibition rate (%) Prickly sida ([1]; 31 g/ha active ingredient) [%] | Growth inhibition rate (%) redroot pigweed ([2]; 31 g/ha active ingredient) [%] | Growth inhibition rate (%) Greenfoxtail ([3]; 31 g/ha active ingredient) [%] | Growth inhibition rate (%) Barnyardgrass (barnyardgrass) [%] | Growth inhibition rate (%) Velvetleaf ([4]; 31 g/ha active ingredient) [%] | Growth inhibition rate (%) Wheat (wheat) [%] | Growth inhibition rate (%) Rice (rice) [%] | Growth inhibition rate (%) Crabgrass ([5]; 31 g/ha active ingredient) [%] | Growth inhibition rate (%) Soybean (soybean) [%] | Growth inhibition rate (%) Corn (corn (Zea mays L.); 31 g/ha active ingredient) [%] | Growth inhibition rate (%) Soybean ([6]; 31 g/ha active ingredient) [%] | Growth inhibition rate (%) Prickly sida (prickly sida) [%] | Growth inhibition rate (%) Rice (rice (Oryza sativa L.); 31 g/ha active ingredient) [%] | Growth inhibition rate (%) Barnyardgrass ([7]; 31 g/ha active ingredient) [%] | Growth inhibition rate (%) Corn (corn) [%] | Growth inhibition rate (%) Velvetleaf (velvetleaf) [%] | further results
1 | COC(=O)c1c(S(C)(=O)=O)ccc(C(=O)c2cnn(C)c2OC(=O)SC(C)(C)C)c1C [compound 90] | 0 | 100 | 100 | 100 | 75 | 80 | 95 | 100 | 95 | 0 | 100 | 60 | 30 | 0 | 80 | 98 | 40 | 80 | 10 | 100 | –
2 | CCCOC(=O)c1c(S(C)(=O)=O)ccc(C(=O)c2cnn(CC)c2OC(=O)SCC)c1Cl [compound 60] | 0 | 100 | 95 | 60 | 70 | 80 | 60 | 100 | 70 | 0 | 40 | 90 | 20 | 0 | 50 | 70 | 70 | 95 | 0 | 60 | –
3 | CCC(C)SC(=O)Oc1c(C(=O)c2ccc(S(C)(=O)=O)c(C(=O)OC)c2C)cnn1CC (stereo not drawn) [compound 89] | 20 | 95 | 90 | 80 | 60 | 90 | 100 | 70 | 100 | 0 | 80 | 100 | 0 | 20 | 95 | 50 | 100 | 100 | 0 | 70 | –
4 | CCSC(=O)Oc1c(C(=O)c2ccc(S(C)(=O)=O)c(SC)c2Cl)cnn1C [compound 212] | – | 40 | 80 | 0 | – | – | – | 50 | – | 0 | 0 | – | 0 | – | – | 50 | – | – | 0 | 0 | Growth inhibition rate (%) Wheat (wheat (Triticum spp.); 63 g/ha active ingredient): 0%; Growth inhibition rate (%) Prickly sida ([1]; 63 g/ha active ingredient): 40%; Growth inhibition rate (%) redroot pigweed ([2]; 63 g/ha active ingredient): 100%; Growth inhibition rate (%) Greenfoxtail ([3]; 63 g/ha active ingredient): 60%; Growth inhibition rate (%) Velvetleaf ([4]; 63 g/ha active ingredient): 60%; Growth inhibition rate (%) Crabgrass ([5]; 63 g/ha active ingredient): 50%; Growth inhibition rate (%) Corn (corn (Zea mays L.); 63 g/ha active ingredient): 0%; Growth inhibition rate (%) Soybean ([6]; 63 g/ha active ingredient): 90%; Growth inhibition rate (%) Rice (rice (Oryza sativa L.); 63 g/ha active ingredient): 30%; Growth inhibition rate (%) Barnyardgrass ([7]; 63 g/ha active ingredient): 100%
5 | CCSC(=O)Oc1c(C(=O)c2ccc(S(C)(=O)=O)c(OCCCOC)c2C)cnn1C [compound 218] | 10 | 80 | 100 | 90 | 70 | 100 | 95 | 90 | 90 | 0 | 80 | 100 | 0 | 0 | 95 | 50 | 98 | 100 | 0 | 30 | –
6 | CCSC(=O)Oc1c(C(=O)c2ccc(S(C)(=O)=O)c(OC3CCOC3)c2C)cnn1C (stereo not drawn) [compound 217] | 40 | 95 | 95 | 60 | 70 | 100 | 98 | 80 | 80 | 0 | 80 | 100 | 0 | 0 | 98 | 60 | 90 | 100 | 0 | 20 | –
7 | C#CCOc1c(S(C)(=O)=O)ccc(C(=O)c2cnn(C)c2OC(=O)SCC)c1C [compound 222] | 0 | 100 | 100 | 80 | 30 | 100 | 80 | 95 | 60 | 0 | 90 | 70 | 0 | 0 | 100 | 50 | 70 | 90 | 0 | 80 | –
8 | CCn1ncc(C(=O)c2ccc(S(C)(=O)=O)c(C(=O)OC)c2Cl)c1OC(=O)SC [compound 97] | 10 | 100 | 100 | 100 | 50 | 100 | 100 | 100 | 80 | 0 | 70 | 70 | 10 | 0 | 80 | 100 | 60 | 100 | 0 | 100 | –
9 | CCSC(=O)Oc1c(C(=O)c2ccc(S(C)(=O)=O)c(COCC(F)(F)F)c2Cl)cnn1C [compound 70] | 0 | 80 | 100 | 50 | 70 | 100 | 100 | 70 | 80 | 0 | 40 | 100 | 0 | 30 | 80 | 65 | 70 | 100 | 0 | 70 | –
